Data taken from paper PMC6271228, “Diethyl 2-(Phenylcarbamoyl)phenyl Phosphorothioates: Synthesis, Antimycobacterial Activity and Cholinesterase Inhibition” (Molecules, 2014).
In brackets after ≈: the same amount, converted by molar mass. Where two headings read alike, the source gives them in different places.

Key:
[1] = system: M. kansasii 6509/96 (clinically isolated); assay: microbe, parasite or virus in culture; assay type: cell-based; conditions: Mycobacterium kansasii, 37 °C
AChE from electric eel = molecular target: T1, AChE from electric eel (Electrophorus electricus, UniProt O42275); assay: AChE inhibition, modified Ellman's method; assay type: biochemical, Electrophorus electricus L.
T1 construct: Acetylcholinesterase was obtained from electric eel (Electrophorus electricus L.); from tissue; host or cells: electric eel (Electrophorus electricus L.)
T1 sequence (O42275 24-633): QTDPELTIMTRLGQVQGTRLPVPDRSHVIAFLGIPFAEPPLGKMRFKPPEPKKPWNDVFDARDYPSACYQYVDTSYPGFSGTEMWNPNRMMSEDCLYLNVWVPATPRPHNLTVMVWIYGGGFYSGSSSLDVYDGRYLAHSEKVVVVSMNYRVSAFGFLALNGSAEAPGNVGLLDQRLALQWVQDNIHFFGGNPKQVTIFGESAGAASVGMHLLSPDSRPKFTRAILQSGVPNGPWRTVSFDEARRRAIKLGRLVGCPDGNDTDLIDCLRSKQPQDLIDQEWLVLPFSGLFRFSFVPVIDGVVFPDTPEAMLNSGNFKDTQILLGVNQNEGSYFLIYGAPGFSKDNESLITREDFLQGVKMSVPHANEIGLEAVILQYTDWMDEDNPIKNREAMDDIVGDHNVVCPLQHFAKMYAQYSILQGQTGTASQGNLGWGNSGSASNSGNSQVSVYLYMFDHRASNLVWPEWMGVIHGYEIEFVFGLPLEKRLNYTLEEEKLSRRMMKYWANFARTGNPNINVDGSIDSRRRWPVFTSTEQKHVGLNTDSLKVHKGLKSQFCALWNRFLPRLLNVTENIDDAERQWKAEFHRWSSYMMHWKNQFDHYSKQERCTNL
Source text: (§1) The ability of the tested compounds to inhibit AChE from electric eel (Electrophorus electricus L.) and BChE from equine serum was screened in vitro using modified Ellman’s method for the evaluation of cholinesterase activity. […] […]. These two standards were chosen due to their different structures. […]. The choice of these drugs with different mechanism of action can provide relevant results. All tested compounds expressed a good inhibitory activity with IC50s in low micromolar values.
(§2) The IC50 values were determined using the spectrophotometric Ellman’s method, which is a simple, rapid and direct method to determine the SH and -S-S- group content in proteins. This method is widely used for cholinesterase activity evaluation and screening of the efficiency of cholinesterase inhibitors. Cholinesterase activity is measured indirectly by quantifying the concentration of 5-thio-2-nitrobenzoic acid (TNB) ion formed in the reaction between the thiol reagent 5,5'-dithiobis-2-nitrobenzoic acid (DTNB) and thiocholine, a product of substrate hydrolysis by cholinesterase (i.e., acetylthiocholine, ATCh). All the tested compounds were dissolved in dimethyl sulfoxide (concentration 0.01 M) and then diluted in demineralised water (concentration 0.001 M and 0.0001 M). The Ellman’s method is slightly modified according to Zdrazilova et al.. Acetylcholinesterase was obtained from electric eel (Electrophorus electricus L.) and butyrylcholinesterase from equine serum.

M. avium My 330/88 = assay: microbe, parasite or virus in culture; assay type: cell-based, Mycobacterium avium; conditions: for MIC: Mycobacterium avium, 37 °C
BChE from equine serum = molecular target: T2, BChE from equine serum (Equus caballus, UniProt P81908); assay: BChE inhibition, modified Ellman's method; assay type: biochemical
T2 construct: butyrylcholinesterase from equine serum; from tissue; host or cells: equine serum
T2 sequence (P81908 whole entry): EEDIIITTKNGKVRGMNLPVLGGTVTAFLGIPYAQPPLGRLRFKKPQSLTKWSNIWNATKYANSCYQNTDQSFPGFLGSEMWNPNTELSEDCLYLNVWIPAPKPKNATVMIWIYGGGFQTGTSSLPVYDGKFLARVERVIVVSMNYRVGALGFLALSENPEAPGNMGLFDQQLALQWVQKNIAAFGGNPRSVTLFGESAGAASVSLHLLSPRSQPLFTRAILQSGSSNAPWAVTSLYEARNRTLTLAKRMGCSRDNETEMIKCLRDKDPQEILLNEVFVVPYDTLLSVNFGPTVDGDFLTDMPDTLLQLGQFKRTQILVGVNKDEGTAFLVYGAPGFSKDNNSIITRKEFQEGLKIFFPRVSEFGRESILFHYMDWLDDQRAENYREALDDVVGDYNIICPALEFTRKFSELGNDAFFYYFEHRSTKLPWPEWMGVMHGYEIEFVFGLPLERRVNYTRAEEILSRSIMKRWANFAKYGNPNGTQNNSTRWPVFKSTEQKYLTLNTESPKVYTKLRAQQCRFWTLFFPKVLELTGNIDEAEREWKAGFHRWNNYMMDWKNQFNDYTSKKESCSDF
Source text: as §1, §2

[2] = system: Mycobacterium tuberculosis My 331/88 (H37Rv); assay: microbe, parasite or virus in culture; assay type: cell-based; conditions: 37 °C
M. kansasii My 235/80 = assay: microbe, parasite or virus in culture; assay type: cell-based, Mycobacterium kansasii; conditions: for MIC: Mycobacterium kansasii, 37 °C; for MICs for M. kansasii 235/80: all time points
[3] = system: nontuberculous mycobacteria (M. avium and M. kansasii); assay: microbe, parasite or virus in culture; assay type: cell-based; conditions: Mycobacterium avium, M. avium and M. kansasii strains; read-out: MIC values against nontuberculous mycobacteria
[4] = 168 h, 7 d, read-out: MIC M. kansasii 6509/96 7 d
[5] = 336 h, 14 d, read-out: MIC M. kansasii 6509/96 14 d
[6] = 504 h, 21 d, read-out: MIC M. kansasii 6509/96 21 d
[7] = MY330/88, 336 h, 14 d, read-out: MIC M. avium 330/88 14 d
[8] = MY330/88, 504 h, 21 d, read-out: MIC M. avium 330/88 21 d
[9] = 336 h, 14 d, read-out: MIC Mtb 331/88 (H37Rv) 14 d
[10] = 504 h, 21 d, read-out: MIC Mtb 331/88 (H37Rv) 21 d
[11] = MY235/80, 168 h, 7 d, read-out: MIC M. kansasii 235/80 7 d
[12] = MY235/80, 336 h, 14 d, read-out: MIC M. kansasii 235/80 14 d
[13] = MY235/80, 504 h, 21 d, read-out: MIC M. kansasii 235/80 21 d

Compound | MIC [1, 4] [µM] | MIC [1, 5] [µM] | MIC [1, 6] [µM] | IC50 (AChE from electric eel) [µM] | MIC (M. avium My 330/88; [7]) [µM] | MIC (M. avium My 330/88; [8]) [µM] | IC50 (BChE from equine serum) [µM] | MIC [2, 9] [µM] | MIC [2, 10] [µM] | MIC (M. kansasii My 235/80; [11]) [µM] | MIC (M. kansasii My 235/80; [12]) [µM] | MIC (M. kansasii My 235/80; [13]) [µM] | MICs for M. kansasii 235/80 (M. kansasii My 235/80) [µM] | MIC values against M. avium (M. avium My 330/88; all MIC values (14 and 21 d)) [µM] | MIC [3] [µM]
CCOP(=S)(OCC)Oc1cc(Cl)ccc1C(=O)Nc1ccc(Cl)c(Cl)c1 [1u, O-{5-Chloro-2-[(3,4-dichlorophenyl)carbamoyl]phenyl} O,O-diethyl phosphorothioate] | 32 (≈ 15 µg/mL) | 62.5 (≈ 29.3 µg/mL) | 62.5 (≈ 29.3 µg/mL) | 9.56 ± 0.21 | > 500 | > 500 | 14.7 ± 0.2 | 16 (≈ 7.5 µg/mL) | 16 (≈ 7.5 µg/mL) | 32 (≈ 15 µg/mL) | 32 (≈ 15 µg/mL) | 32 (≈ 15 µg/mL) |  |  | 
CCOP(=S)(OCC)Oc1cc(Cl)ccc1C(=O)Nc1cccc(Br)c1 [1v, O-{2-[(3-Bromophenyl)carbamoyl]-5-chlorophenyl} O,O-diethyl phosphorothioate] | 32 (≈ 15.3 µg/mL) | 125 (≈ 59.8 µg/mL) | 250 (≈ 120 µg/mL) | 9.98 ± 0.43 | 500 (≈ 239 µg/mL) | 500 (≈ 239 µg/mL) | 14.9 ± 1 | 32 (≈ 15.3 µg/mL) | 32 (≈ 15.3 µg/mL) | 32 (≈ 15.3 µg/mL) | 125 (≈ 59.8 µg/mL) | 250 (≈ 120 µg/mL) |  |  | 
CCOP(=S)(OCC)Oc1cc(Cl)ccc1C(=O)Nc1ccc(Br)cc1 [1w, O-{2-[(4-Bromophenyl)carbamoyl]-5-chlorophenyl} O,O-diethyl phosphorothioate] | 32 (≈ 15.3 µg/mL) | 62.5 (≈ 29.9 µg/mL) | 62.5 (≈ 29.9 µg/mL) | 10.12 ± 0.08 | 250 (≈ 120 µg/mL) | 250 (≈ 120 µg/mL) | 16.4 ± 0.2 | 32 (≈ 15.3 µg/mL) | 32 (≈ 15.3 µg/mL) | 32 (≈ 15.3 µg/mL) | 32 (≈ 15.3 µg/mL) | 32 (≈ 15.3 µg/mL) |  |  | 
CCOP(=S)(OCC)Oc1cc(Cl)ccc1C(=O)Nc1cccc(F)c1 [1x, O-{5-Chloro-2-[(3-fluorophenyl)carbamoyl]phenyl} O,O-diethyl phosphorothioate] | 32 (≈ 13.4 µg/mL) | 125 (≈ 52.2 µg/mL) | 250 (≈ 104 µg/mL) | 8.04 ± 0.27 | 250 (≈ 104 µg/mL) | 250 (≈ 104 µg/mL) | 8.68 ± 0.54 | 16 (≈ 6.69 µg/mL) | 32 (≈ 13.4 µg/mL) | 32 (≈ 13.4 µg/mL) | 125 (≈ 52.2 µg/mL) | 250 (≈ 104 µg/mL) |  |  | 
CCOP(=S)(OCC)Oc1cc(Cl)ccc1C(=O)Nc1ccc(F)cc1 [1y, O-{5-Chloro-2-[(4-fluorophenyl)carbamoyl]phenyl} O,O-diethyl phosphorothioate] | 62.5 (≈ 26.1 µg/mL) | 250 (≈ 104 µg/mL) | 500 (≈ 209 µg/mL) | 11.6 ± 0.3 | 125 (≈ 52.2 µg/mL) | 250 (≈ 104 µg/mL) | 8.67 ± 0.49 | 32 (≈ 13.4 µg/mL) | 32 (≈ 13.4 µg/mL) | 62.5 (≈ 26.1 µg/mL) | 250 (≈ 104 µg/mL) | 500 (≈ 209 µg/mL) |  |  | 
CCOP(=S)(OCC)Oc1cc(Cl)ccc1C(=O)Nc1cccc(C(F)(F)F)c1 [1z, O-(5-Chloro-2-{[3-(trifluoromethyl)phenyl]carbamoyl}phenyl) O,O-diethyl phosphorothioate] | 62.5 (≈ 29.2 µg/mL) | 125 (≈ 58.5 µg/mL) | 125 (≈ 58.5 µg/mL) | 11.4 ± 0.3 | 500 (≈ 234 µg/mL) | 500 (≈ 234 µg/mL) | 15 | 32 (≈ 15 µg/mL) | 62.5 (≈ 29.2 µg/mL) | 32 (≈ 15 µg/mL) | 125 (≈ 58.5 µg/mL) | 250 (≈ 117 µg/mL) | ≤ 250 |  | 
CCOP(=S)(OCC)Oc1cc(Cl)ccc1C(=O)Nc1ccc(C(F)(F)F)cc1 [1zz, O-(5-Chloro-2-{[4-(trifluoromethyl)phenyl]carbamoyl}phenyl) O,O-diethyl phosphorothioate] | 16 (≈ 7.49 µg/mL) | 32 (≈ 15 µg/mL) | 32 (≈ 15 µg/mL) | 9.16 ± 0.17 | 62.5 (≈ 29.2 µg/mL) | 62.5 (≈ 29.2 µg/mL) | 18.3 ± 1 | 8 (≈ 3.74 µg/mL) | 16 (≈ 7.49 µg/mL) | 16 (≈ 7.49 µg/mL) | 16 (≈ 7.49 µg/mL) | 16 (≈ 7.49 µg/mL) | ≤ 250 | ≤ 250 | ≥ 16
